Key:
[1] = tested on: MSTN; assay type: cell-based; conditions: HepG2, (SBE)4-luc; MSTN 10 ng/ml, 8 h; MID-35 3 μM or SB-431542 10 μM, 1 h pretreatment; n = 3
[2] = tested on: TGF‐β; assay type: cell-based; conditions: HepG2, (SBE)4-luc; TGF-β 5 ng/ml, 8 h; MID-35 3 μM or SB-431542 10 μM, 1 h pretreatment; n = 3
[3] = tested on: GDF‐11; assay type: cell-based; conditions: HepG2, (SBE)4-luc; GDF-11 10 ng/ml, 8 h; MID-35 3 μM or SB-431542 10 μM, 1 h pretreatment; n = 3
[4] = tested on: MSTN; test: Smad2/3 nuclear localization induced by MSTN in C2C12 cells; assay type: cell-based; conditions: MID-35 3 μM or SB-431542 10 μM preincubated 1 h with MSTN 10 ng/ml
[5] = tested on: ALK4; conditions: ref [26]; cited from earlier work
[6] = tested on: ALK7; conditions: ref [26]; cited from earlier work
[7] = tested on: ALK5; conditions: ref [26]; cited from earlier work
[8] = tested on: cancer cachexia model mice (LLC cells); test: LLC cancer cachexia model mice, MID-35 and/or anamorelin; assay type: in vivo, C57BL/6J mice; conditions: MID-35 i.m. and/or anamorelin p.o.; 22 days after LLC transplantation; Figure 6B
[9] = men who received 100 mg in a clinical trial; ref not given; cited from earlier work
[10] = tested on: cancer cachexia patients; conditions: cited from earlier work
[11] = tested on: ghrelin receptor; conditions: ref [8]; cited from earlier work
[12] = tested on: vascular function; conditions: via binding to BMP9 and BMP10; ref [36]; cited from earlier work
[13] = patients with non-small-cell lung cancer, ref [9], [10], [11]

In the case of `NC(=O)c1ccc(-c2nc(-c3ccc4c(c3)OCO4)c(-c3ccccn3)[nH]2)cc1` [SB‐431542], the “inhibition of MSTN-induced transcriptional activity” value [1] is reported as “suppressed”, the “inhibition of TGF-β-induced reporter activity” value [2] is reported as “suppressed” and the “inhibition of GDF-11-induced reporter activity” value [3] is reported as “suppressed”. For the same molecule, the Smad2 nuclear accumulation [4] was “completely blocked”, the ALK4 kinase inhibition [5] was “known kinase inhibitor” and the ALK7 kinase inhibition [6] was “known kinase inhibitor”. The ALK5 kinase inhibition [7] was “known kinase inhibitor”.

For `CN(C)N(C)C(=O)[C@@]1(Cc2ccccc2)CCCN(C(=O)[C@@H](Cc2c[nH]c3ccccc23)NC(=O)C(C)(C)N)C1` [anamorelin], the “gastrocnemius weight per body weight without tumor” value [8] is listed as “increased”, the “plasma Cmax average” value [9] is listed as 707 ± 307 ng/mL and the lean body mass ([10]; clinical trial, cancer cachexia patients, ref not given) is listed as “increased lean body mass”. The appetite ([10]; patients with cancer cachexia, oral, ref [8]) was “augments appetite”, the QOL [10, 13] was “improvement of QOL” and the weight gain [10, 13] was “contribute to weight gain”. For the same molecule, the ghrelin receptor activity [11] was “ghrelin receptor agonist”.

B1: ActRIIB: activin receptor type IIB; binds to both BMP9 and BMP10 (protein, UniProt Q13705 19-512, looked up)
Activin receptor type-2B: SGRGEAETRECIYYNANWELERTNQSGLERCEGEQDKRLHCYASWRNSSGTIELVKKGCWLDDFNCYDRQECVATEENPQVYFCCCEGNFCNERFTHLPEAGGPEVTYEPPPTAPTLLTVLAYSLLPIGGLSLIVLLAFWMYRHRKPPYGHVDIHEDPGPPPPSPLVGLKPLQLLEIKARGRFGCVWKAQLMNDFVAVKIFPLQDKQSWQSEREIFSTPGMKHENLLQFIAAEKRGSNLEVELWLITAFHDKGSLTDYLKGNIITWNELCHVAETMSRGLSYLHEDVPWCRGEGHKPSIAHRDFKSKNVLLKSDLTAVLADFGLAVRFEPGKPPGDTHGQVGTRRYMAPEVLEGAINFQRDAFLRIDMYAMGLVLWELVSRCKAADGPVDEYMLPFEEEIGQHPSLEELQEVVVHKKMRPTIKDHWLKHPGLAQLCVTIEECWDHDAEARLSAGCVEERVSLIRRSVNGTTSDCLVSLVTSVTNVDLPPKESSI
In the case of B1, the vascular side-effects [12] is given as “vascular side‐effects”.

— PMC9530881 (Cancer Science, 2022)
